# Results: patent US12428408B2, “Fused heterocyclic mescaline derivatives” (Enveric Biosciences Canada Inc., priority 2022, dated 2025)
# Where two headings read alike, the source gives them in different places.
# Experiments:
# [1] = target: T1, 5-HT7 (h) (Homo sapiens, UniProt P34969); assay: Competition assay to measure binding affinity at 5-HT7 receptor; details: test ligand 10 μM; [3H]LSD 4 nM
# T1 construct: host or cells: HEK-293 cells
# [2] = target: T2, D3 (h) (Homo sapiens, UniProt P35462); assay: Competition assay to measure binding affinity at D3 receptor; details: test ligand 10 μM; [3H]methylspiperone […]
# T2 construct: host or cells: CHO cells
# [3] = target: T3, 5-HT1D (r) (Rattus norvegicus, UniProt P28565); assay: Competition assay to measure binding affinity at 5-HT1D receptor; details: test ligand 10 μM; [3H]serotonin 1 nM
# T3 construct: host or cells: CHO cells
# [4] = target: T4, D2 (h) (Homo sapiens, UniProt P14416); assay: Competition assay to measure binding affinity at D2L receptor; details: test ligand 10 μM; [3H]methylspiperone 0.3 nM
# T4 construct: host or cells: HEK-293 cells
# [5] = target: T5, 5-HT2C (h) (Homo sapiens, UniProt P28335); assay: Competition assay to measure binding affinity at 5-HT2C receptor; details: test ligand 10 μM; [125I](±)DOI 0.1 nM
# T5 construct: host or cells: HEK-293 cells
# T5 sequence (P28335 33-458): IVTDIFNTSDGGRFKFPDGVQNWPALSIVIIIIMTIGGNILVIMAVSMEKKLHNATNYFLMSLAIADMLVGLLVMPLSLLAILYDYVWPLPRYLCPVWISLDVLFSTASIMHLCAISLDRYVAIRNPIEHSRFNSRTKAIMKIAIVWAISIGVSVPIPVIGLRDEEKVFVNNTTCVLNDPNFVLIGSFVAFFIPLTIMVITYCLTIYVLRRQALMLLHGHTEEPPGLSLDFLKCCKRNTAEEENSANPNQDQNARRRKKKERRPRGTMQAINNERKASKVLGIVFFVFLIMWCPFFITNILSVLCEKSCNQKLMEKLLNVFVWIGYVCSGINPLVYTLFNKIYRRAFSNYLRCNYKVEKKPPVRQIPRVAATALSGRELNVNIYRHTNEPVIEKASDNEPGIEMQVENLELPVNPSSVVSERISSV
# [6] = target: T6, human serotonin transporter (SERT) (Homo sapiens, UniProt P31645); assay: biochemical; format: binding
# T6 construct: purchased PerkinElmer RBHSTM400UA
# [7] = target: T7, alpha2A (h) (Homo sapiens, UniProt P08913); assay: Competition assay to measure binding affinity at alpha2A receptor; details: test ligand 10 μM, [3H]RX 821002 1 nM; for inhibition at 10 µM: read-out: α-2A, percent of control-specific binding
# T7 construct: host or cells: CHO cells
# T7 sequence (P08913 1-465): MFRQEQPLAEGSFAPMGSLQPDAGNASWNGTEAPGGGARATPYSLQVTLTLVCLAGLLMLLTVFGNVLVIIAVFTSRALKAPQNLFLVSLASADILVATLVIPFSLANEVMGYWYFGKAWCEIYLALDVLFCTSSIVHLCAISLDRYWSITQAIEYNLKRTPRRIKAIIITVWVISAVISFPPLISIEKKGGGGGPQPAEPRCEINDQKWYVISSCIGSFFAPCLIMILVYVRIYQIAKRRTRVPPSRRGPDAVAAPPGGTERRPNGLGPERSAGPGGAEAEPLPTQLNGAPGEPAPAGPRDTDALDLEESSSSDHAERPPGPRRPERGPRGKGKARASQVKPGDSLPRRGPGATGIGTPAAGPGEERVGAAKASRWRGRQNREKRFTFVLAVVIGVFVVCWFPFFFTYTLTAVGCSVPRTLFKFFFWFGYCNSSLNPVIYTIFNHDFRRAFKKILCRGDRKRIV
# [8] = target: T8, DAT (h) (Homo sapiens, UniProt Q01959); assay: Competition assay to measure binding affinity at dopamine transporter (DAT); details: test ligand 10 μM; [3H]BTCP 4 nM
# T8 construct: host or cells: CHO cells
# [9] = target: T9, 5-HT1A receptor (Homo sapiens, UniProt P08908); assay: Functional 5-HT1A receptor cAMP assay in CHO-K1/5-HT1A/Gα15 cells; format: cell-based; details: for 5-HT1A receptor engagement (change in cAMP levels), in words: +5-HT1A cells, 4 μM forskolin, FIGS. 37B-37H
# T9 construct: purchased Perkin Elmer 6110501400UA
# T9 sequence (P08908 1-422): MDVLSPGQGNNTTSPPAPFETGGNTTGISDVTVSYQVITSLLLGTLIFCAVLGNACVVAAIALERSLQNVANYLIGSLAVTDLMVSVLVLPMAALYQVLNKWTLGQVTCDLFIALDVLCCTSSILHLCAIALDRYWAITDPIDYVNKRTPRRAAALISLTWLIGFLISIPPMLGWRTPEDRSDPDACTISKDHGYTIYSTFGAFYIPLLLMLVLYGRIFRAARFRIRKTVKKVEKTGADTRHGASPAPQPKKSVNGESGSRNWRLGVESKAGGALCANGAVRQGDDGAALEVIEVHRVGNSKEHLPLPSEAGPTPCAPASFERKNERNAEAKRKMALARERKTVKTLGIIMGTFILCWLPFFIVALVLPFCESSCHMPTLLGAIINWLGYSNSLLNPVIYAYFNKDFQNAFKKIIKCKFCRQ
# [10] = target: T10, 5-HT1B (h) (Homo sapiens, UniProt P28222); assay: Competition assay to measure binding affinity at 5-HT1B receptor; details: test ligand 10 μM; [3H]GR125743 1 nM
# T10 construct: host or cells: Chem-1 (RBL) cells
# [11] = target: 5-HT2A receptor (Homo sapiens, UniProt P28223); assay: 5-HT2A receptor radioligand competition assay (SPA)
# [12] = target: T11, 5-HT2B (h) (Homo sapiens, UniProt P41595); assay: Competition assay to measure binding affinity at 5-HT2B receptor; details: test ligand 10 μM; [3H]mesulergine 2 nM
# T11 construct: host or cells: CHO cells
# [13] = target: T12, MT1 (ML1A) (h) (Homo sapiens, UniProt P48039); assay: Competition assay to measure binding affinity at MT1 receptor; details: test ligand 10 μM; [125I]2-iodomelatonin 0.01 nM
# T12 construct: host or cells: CHO cells
# [14] = target: T9, 5-HT1A receptor; assay: 5-HT1A receptor radioligand competition assay (SPA); format: binding; details: competition with 0.5 nM 8-hydroxy-DPAT [3H]; test compound 3 nM to 1 mM; read-out: 5-HT1A, Ki
# [15] = target: T13, NET (h) (Homo sapiens, UniProt P23975); assay: Competition assay to measure binding affinity at norepinephrine transporter (NET); details: test ligand 10 μM; [3H]nisoxetine 1 nM
# T13 construct: host or cells: CHO cells
# T13 sequence (P23975 whole entry): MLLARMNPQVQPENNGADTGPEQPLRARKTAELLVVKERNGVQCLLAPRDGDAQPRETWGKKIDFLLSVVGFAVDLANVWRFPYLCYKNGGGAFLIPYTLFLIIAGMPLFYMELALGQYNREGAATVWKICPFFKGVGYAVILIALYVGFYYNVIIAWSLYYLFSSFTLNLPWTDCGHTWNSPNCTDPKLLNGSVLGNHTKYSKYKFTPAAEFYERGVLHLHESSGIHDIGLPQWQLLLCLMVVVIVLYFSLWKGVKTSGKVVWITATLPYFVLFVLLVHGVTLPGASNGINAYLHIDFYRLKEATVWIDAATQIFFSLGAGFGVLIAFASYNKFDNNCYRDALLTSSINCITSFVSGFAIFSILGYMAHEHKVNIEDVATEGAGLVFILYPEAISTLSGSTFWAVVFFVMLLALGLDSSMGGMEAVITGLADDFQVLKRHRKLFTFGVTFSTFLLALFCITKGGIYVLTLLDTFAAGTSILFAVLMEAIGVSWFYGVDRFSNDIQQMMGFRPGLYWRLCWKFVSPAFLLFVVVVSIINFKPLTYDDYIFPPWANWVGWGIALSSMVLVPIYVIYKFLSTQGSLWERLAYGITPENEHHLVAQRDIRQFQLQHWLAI
# T6 sequence (P31645 whole entry): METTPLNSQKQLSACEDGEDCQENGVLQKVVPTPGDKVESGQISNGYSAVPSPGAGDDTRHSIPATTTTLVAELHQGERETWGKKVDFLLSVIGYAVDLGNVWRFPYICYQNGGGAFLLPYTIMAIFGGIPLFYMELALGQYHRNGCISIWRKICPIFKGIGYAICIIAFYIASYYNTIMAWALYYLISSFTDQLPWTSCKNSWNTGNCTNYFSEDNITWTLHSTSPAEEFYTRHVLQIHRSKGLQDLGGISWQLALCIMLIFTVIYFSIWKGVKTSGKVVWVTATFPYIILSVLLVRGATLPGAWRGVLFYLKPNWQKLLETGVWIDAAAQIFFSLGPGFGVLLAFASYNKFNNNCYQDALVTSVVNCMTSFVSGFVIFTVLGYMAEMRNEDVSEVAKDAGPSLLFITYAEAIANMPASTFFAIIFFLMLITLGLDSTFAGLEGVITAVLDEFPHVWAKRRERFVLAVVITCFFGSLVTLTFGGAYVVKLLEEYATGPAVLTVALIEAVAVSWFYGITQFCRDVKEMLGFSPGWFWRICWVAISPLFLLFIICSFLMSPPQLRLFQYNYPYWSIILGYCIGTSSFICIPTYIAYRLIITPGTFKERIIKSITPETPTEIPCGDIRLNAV
# T4 sequence (P14416 whole entry): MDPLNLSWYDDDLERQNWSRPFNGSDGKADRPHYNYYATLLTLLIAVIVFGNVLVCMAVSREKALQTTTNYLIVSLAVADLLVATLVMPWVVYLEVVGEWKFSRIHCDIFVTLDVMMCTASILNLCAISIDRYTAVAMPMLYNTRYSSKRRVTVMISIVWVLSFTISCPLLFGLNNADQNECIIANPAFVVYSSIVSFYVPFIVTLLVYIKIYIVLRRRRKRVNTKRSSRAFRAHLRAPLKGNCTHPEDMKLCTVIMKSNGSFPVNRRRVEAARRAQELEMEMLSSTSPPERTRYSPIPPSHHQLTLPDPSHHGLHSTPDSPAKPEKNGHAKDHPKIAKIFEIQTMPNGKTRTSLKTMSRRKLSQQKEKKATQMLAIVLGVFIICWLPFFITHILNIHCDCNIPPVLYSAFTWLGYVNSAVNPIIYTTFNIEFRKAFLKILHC
# T8 sequence (Q01959 whole entry): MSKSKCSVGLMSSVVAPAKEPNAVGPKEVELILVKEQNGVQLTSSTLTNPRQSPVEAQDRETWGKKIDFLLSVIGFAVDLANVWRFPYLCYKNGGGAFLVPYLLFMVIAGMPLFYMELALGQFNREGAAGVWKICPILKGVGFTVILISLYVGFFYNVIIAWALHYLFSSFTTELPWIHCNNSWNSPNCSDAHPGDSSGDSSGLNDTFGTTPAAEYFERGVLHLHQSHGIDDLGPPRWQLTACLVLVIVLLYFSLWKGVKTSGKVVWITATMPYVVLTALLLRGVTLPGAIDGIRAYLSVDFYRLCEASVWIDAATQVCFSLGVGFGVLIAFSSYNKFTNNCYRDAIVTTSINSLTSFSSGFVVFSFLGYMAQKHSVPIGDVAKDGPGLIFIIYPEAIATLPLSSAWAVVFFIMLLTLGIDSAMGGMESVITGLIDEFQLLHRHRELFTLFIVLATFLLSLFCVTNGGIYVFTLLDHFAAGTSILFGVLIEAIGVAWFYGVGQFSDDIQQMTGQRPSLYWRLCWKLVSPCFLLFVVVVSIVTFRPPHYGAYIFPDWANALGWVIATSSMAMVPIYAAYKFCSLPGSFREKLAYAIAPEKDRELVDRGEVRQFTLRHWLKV
# T3 sequence (P28565 whole entry): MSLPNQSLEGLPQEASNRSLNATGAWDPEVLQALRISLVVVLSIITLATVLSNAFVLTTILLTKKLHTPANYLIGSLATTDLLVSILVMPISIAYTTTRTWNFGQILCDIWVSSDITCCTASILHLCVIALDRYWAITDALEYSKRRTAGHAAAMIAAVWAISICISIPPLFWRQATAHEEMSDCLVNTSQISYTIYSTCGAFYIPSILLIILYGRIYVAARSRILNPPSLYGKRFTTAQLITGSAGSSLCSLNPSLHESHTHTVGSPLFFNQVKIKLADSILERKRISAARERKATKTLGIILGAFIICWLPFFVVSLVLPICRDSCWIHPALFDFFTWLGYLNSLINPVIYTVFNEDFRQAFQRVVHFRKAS
# T1 sequence (P34969 whole entry): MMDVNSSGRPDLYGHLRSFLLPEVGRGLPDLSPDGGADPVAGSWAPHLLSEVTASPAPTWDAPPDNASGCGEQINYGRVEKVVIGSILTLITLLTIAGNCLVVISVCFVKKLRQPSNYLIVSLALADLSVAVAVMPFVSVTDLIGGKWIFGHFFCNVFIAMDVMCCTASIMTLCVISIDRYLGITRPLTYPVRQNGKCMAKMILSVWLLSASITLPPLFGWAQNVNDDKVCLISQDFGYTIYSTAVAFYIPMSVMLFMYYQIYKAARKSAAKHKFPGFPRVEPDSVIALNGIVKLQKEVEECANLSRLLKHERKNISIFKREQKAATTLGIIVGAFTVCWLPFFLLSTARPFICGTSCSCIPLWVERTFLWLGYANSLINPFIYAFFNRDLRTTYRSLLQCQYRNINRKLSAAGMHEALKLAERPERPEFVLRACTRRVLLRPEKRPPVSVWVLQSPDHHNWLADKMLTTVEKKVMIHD
# Chain of 5-HT2A receptor (P28223 whole entry): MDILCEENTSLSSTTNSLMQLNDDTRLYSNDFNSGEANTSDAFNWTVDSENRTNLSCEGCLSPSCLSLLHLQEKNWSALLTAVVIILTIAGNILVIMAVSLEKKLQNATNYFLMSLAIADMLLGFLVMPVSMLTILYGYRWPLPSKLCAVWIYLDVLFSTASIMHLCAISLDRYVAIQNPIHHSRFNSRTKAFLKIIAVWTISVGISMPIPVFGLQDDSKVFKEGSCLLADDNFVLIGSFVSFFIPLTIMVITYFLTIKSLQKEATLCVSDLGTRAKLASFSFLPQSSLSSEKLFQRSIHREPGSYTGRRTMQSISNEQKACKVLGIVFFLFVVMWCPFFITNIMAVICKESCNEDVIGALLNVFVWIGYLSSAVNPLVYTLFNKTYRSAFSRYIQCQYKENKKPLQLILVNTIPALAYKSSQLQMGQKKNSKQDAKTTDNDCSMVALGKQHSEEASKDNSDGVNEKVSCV
# T2 sequence (P35462 whole entry): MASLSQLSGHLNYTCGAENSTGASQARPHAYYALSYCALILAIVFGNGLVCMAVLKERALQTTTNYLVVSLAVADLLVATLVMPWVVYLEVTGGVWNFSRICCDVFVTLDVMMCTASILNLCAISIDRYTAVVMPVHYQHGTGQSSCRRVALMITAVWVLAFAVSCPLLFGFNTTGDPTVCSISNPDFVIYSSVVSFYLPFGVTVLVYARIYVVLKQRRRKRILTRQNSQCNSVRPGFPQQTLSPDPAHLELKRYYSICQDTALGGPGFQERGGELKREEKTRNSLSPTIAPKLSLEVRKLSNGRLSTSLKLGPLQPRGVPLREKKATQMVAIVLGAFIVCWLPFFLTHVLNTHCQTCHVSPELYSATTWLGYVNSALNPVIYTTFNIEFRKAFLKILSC
# T12 sequence (P48039 whole entry): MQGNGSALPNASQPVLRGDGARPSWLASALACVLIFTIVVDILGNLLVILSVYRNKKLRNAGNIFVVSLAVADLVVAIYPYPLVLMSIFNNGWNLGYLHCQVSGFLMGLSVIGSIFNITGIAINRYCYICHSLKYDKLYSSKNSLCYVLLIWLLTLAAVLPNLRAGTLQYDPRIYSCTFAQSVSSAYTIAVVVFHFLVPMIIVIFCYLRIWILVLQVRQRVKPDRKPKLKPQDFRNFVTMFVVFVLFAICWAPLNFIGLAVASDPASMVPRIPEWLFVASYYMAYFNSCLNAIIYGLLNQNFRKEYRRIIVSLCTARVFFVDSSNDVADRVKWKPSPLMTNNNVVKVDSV
# T10 sequence (P28222 whole entry): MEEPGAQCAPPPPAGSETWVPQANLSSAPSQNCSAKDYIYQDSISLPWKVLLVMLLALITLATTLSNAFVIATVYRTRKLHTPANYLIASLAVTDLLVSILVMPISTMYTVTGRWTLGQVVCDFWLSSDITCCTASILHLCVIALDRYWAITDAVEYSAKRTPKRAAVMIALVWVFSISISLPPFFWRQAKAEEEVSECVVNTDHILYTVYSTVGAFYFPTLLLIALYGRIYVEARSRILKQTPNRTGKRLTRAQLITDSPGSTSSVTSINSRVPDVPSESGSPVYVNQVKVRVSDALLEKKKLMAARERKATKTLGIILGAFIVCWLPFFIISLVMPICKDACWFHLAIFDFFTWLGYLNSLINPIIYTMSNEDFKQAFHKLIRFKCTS
SMILES,"HT7, percent of control-specific binding [1]","D3, percent of control-specific binding [2]","HT1D, percent of control-specific binding [3]","D2, percent of control-specific binding [4]","HT2C, percent of control-specific binding [5]",Ki [6],inhibition at 10 µM [7],"DAT, percent of control-specific binding [8]",EC50 [9],"HT1B, percent of control-specific binding [10]",Ki [11],"HT2B, percent of control-specific binding [12]","MT1, percent of control-specific binding [13]",Ki [14],"NET, percent of control-specific binding [15]",also measured
Brc1cc2c(cc1CCN1CCCC1)OCO2 [A(XXV)],71%,70%,30%,21%,87%,10.9 µM,61%,11%,0.342 µM,0%,7.65 µM,76%,1%,0.0635 µM,28%,
COc1cc2c(cc1CCN1CCCC1)OCO2 [A(XIV)],75%,46%,28%,12%,90%,23.2 µM,54%,0%,1.17 µM,7%,11 µM,63%,7%,0.0462 µM,0%,"5-HT1A receptor engagement (change in cAMP levels), in words [9]: receptor modulation at evaluated ligand concentrations"
COc1cc2c(cc1CCNCCO)OCO2 [A(XXIV)],35%,13%,29%,7%,76%,52.2 µM,11%,5%,32.3 µM,0%,26 µM,43%,0%,0.993 µM,0%,
OCCNCCc1cc2c(cc1Br)OCO2 [A(XXX)],61%,30%,39%,4%,57%,84.3 µM,6%,0%,11.7 µM,0%,11.7 µM,54%,0%,0.295 µM,6%,
c1cc(CCN2CCCC2)c2c(c1)OCO2 [A(XXIX)],48%,22%,44%,0%,87%,10.1 µM,57%,49%,0.352 µM,3%,8 µM,48%,1%,0.0132 µM,2%,
FC1(F)Oc2ccc(CCN3CCCC3)cc2O1 [A(XXVIII)],15%,16%,1%,6%,53%,23.7 µM,26%,0%,374 µM,0%,15.6 µM,15%,0%,1.98 µM,0%,
"COc1cc(CCN)c(OC)cc1Br [2C-B, reference compound]",88%,43%,100%,42%,,,,5%,,77%,,99%,86%,0.2 µM,13%,"SERT binding, binding curve in words [6]: bind SERT to varying degrees; Ki ([6]; read-out: SERT, Ki): 11.4 µM; α-2A, percent of control-specific binding [7]: 88%; 5-HT1A receptor engagement (change in cAMP levels), in words [9]: reduction in cAMP levels; EC50 ([9]; reduction of cAMP in +5-HT1A cells stimulated with 4 μM forskolin, 20 min, read-out: 5-HT1A, EC50): 5.95 µM; Ki ([11]; read-out: 5-HT2A, Ki, competition with 1 nM [3H]ketanserin, test compound 3 nM to 1 mM): 0.414 µM"
